Reference: patent US12391685B2, “Inhibitors of RNA-guided nuclease target binding and uses thereof” (THE BROAD INSTITUTE, INC., priority 2018, dated 2025)

Biological target: SpCas9 (Streptococcus pyogenes serotype M1, UniProt Q99ZW2)
Experiment: eGFP-disruption assay in U2OS.eGFP.PEST cells
Format: cell-based, S. pyogenes
Set-up: host or cells: U2OS.eGFP.PEST
Conditions: screen of structural analogs of BRD7087; 15 μM compound, 24 h, U2OS.eGFP.PEST cells
Description: SpCas9 nuclease activity in eGFP-disruption assay. Approximately 200,000 U2OS.eGFP-PEST cells were nucleofected following two different methods either by nucleofecting plasmids or RNP using the SE Cell Line 4D-Nucleofector™ X Kit (Lonza) according to the manufacturer's protocol. In the plasmid nucleofection method, cells were nucleofected either with 440 ng of SpCas9 (Addgene Plasmid #43861) or 400 ng of SpCas9 along with 40 ng of sgRNA (pFYF1320 eGFP Site #1, Addgene Plasmid #47511). Cells nucleofected only with SpCas9-expressing plasmid were used as the transfection control. In the RNP nucleofection method, either […] SpCas9 or 20 pmol preformed SpCas9:gRNA (eGFP Site #1) complex were nucleofected. Approximately 20,000 transfected cells/well were plated in 4 replicates in a 96-well plate (Corning® 3904). Cells were incubated with the indicated amount of compound or DMSO for 24 h post transfection. A DMSO solution of compound (20 mM) was resuspended in the 10% FBS containing growth media and thoroughly mixed before adding to the cells. Cells were then fixed using 4% paraformaldehyde and imaged with the HCS NuclearMask™ Blue Stain (Life Technologies) as the nuclear counter-staining agent. Imaging was performed with an ImageXpress Micro automated microscope (Molecular Devices) at 10× magnification under three excitation channels (blue, green and red) acquiring nine sites per well. Images were analyzed using MetaXpress software and data were plotted using GraphPad Prism 6.
The Z′-value was calculated using the equation (1), where σ1 and σ2 are the standard deviations of DMSO control and SpCas9:gRNA control respectively. μ1 and μ2 are the mean % GFP^− cell population for DMSO control and SpCas9:gRNA control, respectively.

Chain of SpCas9 (Q99ZW2 whole entry): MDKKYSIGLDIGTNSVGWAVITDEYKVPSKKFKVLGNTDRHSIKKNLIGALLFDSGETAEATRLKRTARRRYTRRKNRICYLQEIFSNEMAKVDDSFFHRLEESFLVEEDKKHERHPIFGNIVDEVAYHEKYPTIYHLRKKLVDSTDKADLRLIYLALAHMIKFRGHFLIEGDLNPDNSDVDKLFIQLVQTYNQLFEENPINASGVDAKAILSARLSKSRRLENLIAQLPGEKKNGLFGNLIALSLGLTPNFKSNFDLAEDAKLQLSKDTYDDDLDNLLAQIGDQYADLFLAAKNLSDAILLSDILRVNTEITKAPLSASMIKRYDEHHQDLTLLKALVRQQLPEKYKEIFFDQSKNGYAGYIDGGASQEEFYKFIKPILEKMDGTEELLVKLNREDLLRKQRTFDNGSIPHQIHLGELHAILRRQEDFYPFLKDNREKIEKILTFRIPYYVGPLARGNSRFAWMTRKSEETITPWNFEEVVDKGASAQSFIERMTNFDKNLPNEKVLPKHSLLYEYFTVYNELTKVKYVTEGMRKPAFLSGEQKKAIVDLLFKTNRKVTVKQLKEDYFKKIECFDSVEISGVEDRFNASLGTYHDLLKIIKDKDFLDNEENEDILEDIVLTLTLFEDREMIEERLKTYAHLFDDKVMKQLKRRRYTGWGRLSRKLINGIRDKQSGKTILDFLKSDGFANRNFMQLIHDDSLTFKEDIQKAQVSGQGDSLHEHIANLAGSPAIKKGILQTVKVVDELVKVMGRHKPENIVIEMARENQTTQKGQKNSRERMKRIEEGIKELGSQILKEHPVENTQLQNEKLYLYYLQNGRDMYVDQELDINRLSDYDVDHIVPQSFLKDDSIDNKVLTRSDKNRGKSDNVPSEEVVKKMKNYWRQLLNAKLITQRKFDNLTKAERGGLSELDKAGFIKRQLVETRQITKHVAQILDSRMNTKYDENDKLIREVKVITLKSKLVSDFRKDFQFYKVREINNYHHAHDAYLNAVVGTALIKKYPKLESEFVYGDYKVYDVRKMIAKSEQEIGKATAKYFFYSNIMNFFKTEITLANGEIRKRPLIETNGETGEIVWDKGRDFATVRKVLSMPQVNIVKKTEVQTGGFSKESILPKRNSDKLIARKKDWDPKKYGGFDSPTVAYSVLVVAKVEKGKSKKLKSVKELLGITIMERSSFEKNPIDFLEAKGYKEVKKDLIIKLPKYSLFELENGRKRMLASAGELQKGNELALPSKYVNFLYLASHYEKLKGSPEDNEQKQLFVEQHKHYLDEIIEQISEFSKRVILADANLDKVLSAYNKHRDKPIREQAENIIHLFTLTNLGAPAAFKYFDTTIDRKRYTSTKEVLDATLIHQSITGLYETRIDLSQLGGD

SMILES | Average Inhibition activity | Inhibition activity Rep 1 | Inhibition activity Rep 2
C/C=C/c1ccc2c(c1)[C@H]1[C@H](CCN1C(=O)c1ccc(F)cc1)[C@H](CO)N2 [BRD-K81261525] | 74.3 | 71.3 | 77.4
COc1ccccc1C#Cc1ccc2c(c1)[C@H]1NCC[C@H]1[C@@H](CO)N2 [BRD-K39870434] | 68.1 | 53.7 | 82.5
Cc1ccc(S(=O)(=O)N2CC[C@@H]3[C@H](CO)Nc4ccc(-c5cccc(C(=O)N(C)C)c5)cc4[C@@H]32)cc1 [BRD-K51395794] | 53.9 | 46.5 | 61.3
CN1c2ccc(-c3ccccc3F)cc2[C@@H]2[C@@H](CCN2C(=O)NC2CCCCC2)[C@H]1CO [BRD-K80765942] | 50.0 | 50.5 | 49.6
OC[C@@H]1Nc2ccc(C#Cc3cccnc3)cc2[C@H]2NCC[C@@H]12 [BRD-K71200053] | 67.6 | 54.6 | 80.6
CN1c2ccc(C#Cc3ccc(F)cc3)cc2[C@@H]2[C@@H](CCN2C(=O)CN2CCOCC2)[C@H]1CO [BRD-K82266131] | 56.9 | 51.7 | 62.1
CN1c2ccc(C#Cc3ccccc3)cc2[C@@H]2[C@@H](CCN2S(=O)(=O)c2cn(C)cn2)[C@H]1CO [BRD-A34097118] | 60.1 | 50.1 | 70.1
COc1cccc(S(=O)(=O)N2CC[C@H]3[C@@H](CO)N(C)c4ccc(C#Cc5cccnc5)cc4[C@H]32)c1 [BRD-K92333822] | 55.1 | 53.1 | 57.1
COc1ccc(C#Cc2ccc3c(c2)[C@@H]2[C@@H](CCN2Cc2nccs2)[C@@H](CO)N3)cc1 [BRD-K70808105] | 51.5 | 47.4 | 55.6
CN(C)C(=O)c1cccc(-c2ccc3c(c2)[C@@H]2[C@@H](CCN2C(=O)c2ccc4c(c2)OCO4)[C@@H](CO)N3)c1 [BRD-K83829793] | 53.1 | 61.0 | 45.2
O=C(CC1CC1)N1CC[C@@H]2[C@H]1c1cc(-c3ccc(F)cc3)ccc1N[C@@H]2CO [BRD-K03427362] | 49.4 | 48.3 | 50.6
COc1ccc(-c2ccc3c(c2)[C@H]2[C@H](CCN2C(=O)Cc2ccncc2)[C@H](CO)N3)cc1 [BRD-K17925790] | 51.7 | 52.6 | 50.8
O=S(=O)(c1cccc(F)c1)N1CC[C@H]2[C@H](CO)Nc3ccc(C#Cc4ccccc4F)cc3[C@H]21 [BRD-K67297693] | 72.2 | 64.3 | 80.1
O=C(c1ccc(F)cc1)N1CC[C@@H]2[C@H]1c1cc(C#Cc3ccccc3F)ccc1N[C@@H]2CO [BRD-K79906422] | 51.1 | 51.3 | 50.9
CN1c2ccc(C#Cc3cccnc3)cc2[C@H]2[C@H](CCN2S(=O)(=O)c2ccccc2F)[C@@H]1CO [BRD-K58893765] | 62.6 | 67.8 | 57.4
COc1cccc(S(=O)(=O)N2CC[C@@H]3[C@H](CO)N(C)c4ccc(C#Cc5cccnc5)cc4[C@@H]32)c1 [BRD-K29966477] | 57.5 | 50.1 | 64.8
O=C(C1CCCCC1)N1CC[C@@H]2[C@H](CO)Nc3ccc(C#Cc4ccc(F)cc4)cc3[C@@H]21 [BRD-K72901141] | 49.5 | 53.2 | 45.9
CN1c2ccc(-c3ccc(F)cc3)cc2[C@H]2[C@H](CCN2S(=O)(=O)c2cccc(F)c2)[C@@H]1CO [BRD-K98925777] | 49.4 | 53.6 | 45.2
O=C(C1CCCCC1)N1CC[C@@H]2[C@H]1c1cc(C#Cc3ccc(F)cc3)ccc1N[C@@H]2CO [BRD-K88933335] | 45.7 | 47.8 | 43.7
COc1cccc(S(=O)(=O)N2CC[C@@H]3[C@H]2c2cc(C#Cc4cccnc4)ccc2N(C)[C@H]3CO)c1 [BRD-K04388421] | 51.2 | 49.1 | 53.3
O=C(c1cccc(F)c1)N1CC[C@@H]2[C@H](CO)Nc3ccc(-c4ccccc4)cc3[C@@H]21 [BRD-K94204229] | 57.0 | 47.5 | 66.6
COc1ccccc1C#Cc1ccc2c(c1)[C@H]1[C@H](CCN1C(=O)c1cccc(F)c1)[C@H](CO)N2 [BRD-K83261893] | 45.7 | 47.1 | 44.3
CN1c2ccc(C#Cc3cccnc3)cc2[C@@H]2[C@@H](CCN2C(=O)c2cccc(F)c2)[C@@H]1CO [BRD-K18296007] | 64.7 | 69.6 | 59.7
CCC(=O)N1CC[C@H]2[C@@H]1c1cc(C#Cc3ccccc3OC)ccc1N(C)[C@H]2CO [BRD-K31513357] | 66.7 | 59.8 | 73.6
COc1ccc(S(=O)(=O)N2CC[C@H]3[C@@H](CO)N(C)c4ccc(C#Cc5ccccc5OC)cc4[C@H]32)cc1 [BRD-K83448282] | 45.7 | 46.7 | 44.6
CN1c2ccc(C#Cc3cccnc3)cc2[C@@H]2[C@@H](CCN2S(=O)(=O)c2ccccc2F)[C@H]1CO [BRD-K39647256] | 54.9 | 51.3 | 58.4
